Where “and” joins values, the source holds several entries; their conditions need not be identical. Identical values can stand only once.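 Interpolation was linear, between the two tested concentrations surrounding the appropriate level; five concentrations were tested over 48 hours in 96-well plates. GI50 marks 50% less growth. TGI marks complete inhibition of growth.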
How the values were obtained:
Assay in all cases: NCI anticancer screen, dose series, 48 h
HOP-18 NSCLC = system: HOP-18 NSCLC
HS 578T breast = system: HS 578T breast
MCF7 breast = system: MCF7 breast
MDA-N = system: MDA-N
RXF-631 renal = system: RXF-631 renal

SMILES | TGI (HOP-18 NSCLC) | GI50 (HS 578T breast) | TGI (HS 578T breast) | GI50 (MCF7 breast) | TGI (MCF7 breast) | TGI (MDA-N) | TGI (RXF-631 renal)
Clc1cc(Cl)c2ns[s+]c2c1Cl | > 100 µM |  |  |  |  |  | 
Cc1cc(C(=O)Nc2ccc3cc(CN4CCOCC4)ccc3n2)c(C)n1-c1ccccc1 |  | 4 µM | 44.6 µM | 1.87 µM | 10.8 µM |  | 
CCNCCNc1cc(-c2ccc(C(F)(F)F)cc2)c(C#N)c2nc3ccccc3n12 |  | 1.96 µM | 4.39 µM | 0.642 µM | 2.18 µM |  | 
C=C(C)[C@@H]1CC[C@]2(CO)CC[C@]3(C)[C@H](CC[C@@H]4[C@@]5(C)C=C(C#N)C(=O)C(C)(C)[C@@H]5CC[C@]43C)[C@@H]12 |  | 1.89 µM | 6.84 µM | 0.34 µM | 7.66 µM |  | 
COc1ccc(C(=O)c2cc(OC)c(OC)c(OC)c2)cc1/C=C/C(=O)c1ccc(F)cc1 |  | 4.48 µM | > 100 µM | 2.3 µM | 11.1 µM |  | 
COc1ccc(-c2nc3ccccn3c2/C=C/C(=O)c2cc(OC)c(OC)c(OC)c2)cc1OC |  | 1.85 µM | 9.82 µM | 2.76 µM | > 100 µM |  | 
COc1ccc(-c2cc(-c3cc(C)cc(Br)c3O)no2)cc1 |  |  | > 100 µM |  | 42.4 µM | > 100 µM | 
COc1cc2ncnc(-n3ncc4cc(NC(=O)Nc5ccccc5)ccc43)c2cc1OC |  | 0.299 µM | 3.37 µM | 0.234 µM | 1.9 µM |  | 
NS(=O)(=O)c1ccc(-c2ccc3c(NC(=O)C4CC4)n[nH]c3c2)cc1 |  | > 25 µM | > 25 µM | > 25 µM | > 25 µM |  | 
O=C(N/N=C/c1cc(Br)ccc1O)N/N=C/c1cc(Br)ccc1O |  |  |  |  |  |  | > 100 µM
Nc1nc(Nc2cccnc2)sc1C(=O)c1ccccc1F |  | 3.02 µM | 10.8 µM | 1.94 µM | 8.41 µM |  | 
COC(=O)Nc1nc2ccc(C3(c4ccc(F)cc4)OCCO3)cc2[nH]1 |  | 0.315 µM | > 69.9 µM | 0.18 µM | > 100 µM |  | 
CC1=CC(C)(C)N=C2SC(c3ccc(N)cc3)=NN12 | > 100 µM |  |  |  |  |  | > 100 µM
CC1=CC(=O)C=CC1=O |  | 14.4 µM and 24.9 µM | 47.1 µM and 246 µM | 14.7 µM and 15.4 µM | 34.5 µM and 41.4 µM |  | 
Cc1ccc(N=C/C=C(\Nc2ccc(C)cc2)c2ccc(Cl)cc2)cc1 |  | 15.3 µM | 41.7 µM | 5.77 µM | 69.6 µM |  | 
CCOC(=O)/C(C)=C(/O)C(=O)OCC | > 100 µM |  |  |  |  |  | > 100 µM
CC(=O)C1Cn2c(nc3ccccc32)C[Se]1 (stereo unspecified) | 5.44 µM |  |  |  |  |  | 7.76 µM

SMILES | TGI (HOP-18 NSCLC) | GI50 (HS 578T breast) | TGI (HS 578T breast) | GI50 (MCF7 breast) | TGI (MCF7 breast) | TGI (MDA-N) | TGI (RXF-631 renal)
COc1ccc(-c2[nH]c3ccc(OC)cc3c2/C=C(\C#N)S(=O)(=O)c2ccccc2)cc1 |  | 0.531 µM | 7.25 µM | 0.774 µM | > 100 µM |  | 
CCc1nc2cc(F)c(/C=C/C(=O)NO)cc2c(=O)n1CCc1ccccc1 |  | 0.489 µM | 26.9 µM | 0.302 µM | > 100 µM |  | 
NC(=O)c1cc(Cl)ccc1NC(=O)/C=C/c1ccccc1 |  | 3.17 µM | > 24.5 µM | 1.78 µM | > 100 µM |  | 
CC12OC(C(=O)C13CC3)C1C(=O)c3ccc4c(ccc5ccccc54)c3C(=O)C12 (stereo unspecified) |  | 42.2 µM | > 100 µM | 23.1 µM | > 100 µM |  | 
COc1cc2c3c(n(CCCN)c(=O)c2cc1OC)-c1ccc(C#N)cc1C3=O |  | 18 µM | 41.5 µM | 8.36 µM | 40.1 µM |  | 
COC(=O)C12CC3CC(CC(C(=O)O)(C3)C1)C2 | > 100 µM |  |  |  |  |  | > 100 µM
[N-]=[N+]=C1C(=O)NN=C1c1ccccc1 |  |  |  |  |  |  | > 100 µM
c1ccc(C2N3CCCCC3[C@@H]3c4[nH]c5ccccc5c4CCN23)nc1 (stereo partly specified) | > 100 µM |  |  |  |  |  | > 100 µM
Cc1ccc(NC(=O)c2cccc(C(C)(C)C#N)c2)cc1Nc1ccc2ncn(C)c(=O)c2c1 |  | 8.65 µM | > 100 µM | 4.4 µM | > 100 µM |  | 
CCOC(=O)N[C@@H]1C(CC(=O)OC)O[C@H]2OC(C)(C)O[C@H]21 (stereo partly specified) | > 100 µM |  |  |  |  |  | > 100 µM
N#Cc1cc(-c2cc3ccccc3o2)oc1N |  | 0.401 µM | 3.41 µM | 2.66 µM | 15.3 µM |  | 
Cc1cc(NC(=S)SCc2ccc(F)cc2)c([N+](=O)[O-])cc1C |  |  | 46.6 µM |  | > 100 µM |  | 
CCc1nc(N)nc(N)c1-c1ccc(NC)c([N+](=O)[O-])c1 |  |  | > 100 µM |  | > 87.3 µM | > 100 µM | 
CN1CCN(CCCNc2nc3ccc(Oc4ccc(NC(=O)Nc5cc(C(F)(F)F)ccc5F)cc4)cc3[nH]2)CC1 |  | 3.67 µM | 8.26 µM | 4.05 µM | 7.61 µM |  | 
Nc1ccccc1C#C/C=C\C#Cc1ccccc1N |  |  |  | 9.98 µM | > 100 µM |  | 
COc1ccc2[nH]c3c4[nH]c5ccc(OC)cc5c4c4c(c3c2c1)C(=O)NC4=O |  | 1.35 µM | > 25 µM | > 25 µM | > 25 µM |  | 
CCCC1=C(CC)C(C(=O)Nc2c(C)cccc2C)=NC(S)N1 (stereo unspecified) | > 100 µM |  |  |  |  |  | 
